Where “and” joins values, the source holds several entries; their conditions need not be identical. Equal entries are not always repeated.
Assays:
[1] = system: Squirrel (Saimiri sciureus) monkeys with nigrostriatal damage; test: Levodopa-induced dyskinesias in MPTP-lesioned monkeys, nicotine in drinking solution before levodopa (Example 1); format: in vivo; details: scale 0-4, mean ± SE
Protocol: Animals: Squirrel (Saimiri sciureus) monkeys (n=7) were purchased from World Wide Primates (Miami, Fla.). The animals weighed between 0.6-0.9 kg and were in mid to late adulthood as determined from their general appearance (dentition, fur, other). Female monkeys were used since older animals were available that may better model Parkinson's disease. The animals were placed in quarantine upon arrival, and maintained in a temperature-controlled room (27±3° C.) with a relative humidity>30%, under a 13/11-hour light/dark cycle. Monkey food chow and fruits/vegetables were provided once daily, with water provided ad libitum. The monkeys were housed in separate cages to allow for clear behavioral assessments. The animals were released from quarantine after 1 month and treatments initiated. All procedures conformed to the National Institutes of Health Guide for the Care and Use of Laboratory Animals and were approved by the Institutional Animal Care and Use Committee at the Parkinson's Institute.
(§1) 1-Methyl-4-phenyl-1,2,3,6-tetrahydropyridine (MPTP) administration: Prior to lesioning, the animals were allowed to acclimate to the colony and rated for parkinsonism as described (Langston et al. Ann Neurol. 2000; 47:S79-89). All values were within the normal range. The monkeys were then injected subcutaneously with 2.0 mg/kg MPTP (Sigma, St-Louis, Mo.) dissolved in saline. The animals were rated for parkinsonism 3-4 weeks after MPTP administration. The disability scores ranged from 0 (normal) to 28 for a severely parkinsonian animal. Animals were assessed for 1) spatial hypokinesia (reduction in use of the available cage space), 2) body bradykinesia (increased slowness in body movement), 3) left and 4) right manual dexterity, 5) balance, 6) freezing and 7) action tremor. If they were not parkinsonian, MPTP injection (1.0-2.0 mg/kg) was repeated from 2-5 times for total doses of 3.5 to 13.5 mg/kg. Despite multiple MPTP dosing, two of the animals were not stably parkinsonian.
Nicotine treatment: All monkeys (n=7) were then given a drinking solution for 3 weeks consisting of commercially available orange Gatorade® to mask nicotine's bitter taste (FIG. 1). The control group (n=4) was continued on Gatorade® only, while nicotine (free base) was added to the Gatorade of the treated group (n=3). Nicotine dosing was started at 50 μg/ml for 1 week, 150 μg/ml for 1 week, with the concentration increased by […] over the next few weeks, up to 650 μg/ml (FIG. 1).
Levodopa administration: Monkeys were administered levodopa/carbidopa (5 mg/kg and 1.25 mg/kg, respectively), prepared by crushing a tablet of Sinemet® CR 100/25 (DuPont Pharma) and dissolving it in water. This dose of levodopa is within the range of that prescribed to Parkinson's disease patients. The monkeys were gavaged twice daily at 3.5-hour intervals for 8 weeks at a time using a 5-day-on/2-day-off schedule (Hsu et al., J Pharmacol Exp Ther. 2004; 311:770-777). During levodopa treatment, the monkeys were given fruits in the morning and food pellets 3.5 hours after the afternoon levodopa dose to optimize gastrointestinal absorption.
Dyskinesias were rated from videotapes, as described (Hsu et al., J Pharmacol Exp Ther. 2004; 311:770-777). This included a one hour baseline period (no drugs) from ˜8:00-9:00 AM, followed by two 3.5-hour treatment periods with levodopa starting at ˜9:00 AM and ˜12:30 PM. Dyskinesias were rated for 2-minute periods at 30-minute intervals by two independent raters blinded to treatment. They were rated on a scale of 0 (no dyskinesias) to 4; a score of 1 was indicative of subtle dyskinesias that were not sustained; 2, mild dyskinesias that were sustained; 3, moderate dyskinesias that impaired the ability to remain stationary; 4, severe dyskinesias that were generalized and incapacitating.
Data analyses: The levodopa treatment protocol used in the present study involved a 5-day-on/2-day-off schedule.

[2] = system: MPTP-lesioned squirrel monkeys; test: Parkinsonism rating on or off levodopa in MPTP-lesioned monkeys; format: in vivo, Saimiri sciureus; parameters: key to Parkinson Ratings Expt 1 / Parkinson Ratings Expt 2 (crossover): disability score 0 = normal to 28 = severely parkinsonian
Protocol: as §1
Data analyses: The levodopa treatment protocol used in the present study involved a 5-day-on/2-day-off schedule. Parkinsonian ratings were done on Monday and Friday of each week, with the score averaged over the two days. Dyskinesias ratings were determined by averaging the scores on Wednesday and Thursday of each week. All values are expressed as the mean±SE of the indicated number of animals. Results were compared using paired t-tests or analysis of variance (ANOVA) followed by Bonferroni multiple comparison post hoc test, using Prism® program (GraphPad Software, Inc, San Diego, Calif.). A level of 0.05 was considered significant.
White bars indicate no nicotine treatment and black bars indicate nicotine treatment. Parkinsonism was evaluated immediately before the afternoon L-dopa dose and 1.5 to 2 hours after L-dopa treatment, when a maximal antiparkinsonian effect is anticipated. Two of the seven animals in the study were not parkinsonian, and therefore were not included in this analysis. Error bars are the means±standard error of five animals before and after crossover of nicotine treatment. **p<0.01, as compared with the same group with no L-dopa treatment by a Mann-Withney test.

[3] = general description; cited from earlier work
[4] = on levodopa treatment, 1.5-2 hours after dosing, individual animals, scale 0-28

## N[C@@H](Cc1ccc(O)c(O)c1)C(=O)O [levodopa, (−)-L-a-amino-b-(3,4-dihydroxybenzene) propanoic acid]
[1]; week 2/3 of levodopa treatment, levodopa/carbidopa 5/1.25 mg/kg twice daily
  dyskinetic ratings 3 hours after the afternoon levodopa treatment: 0.5 ± 0.3
[1]; week 4 of levodopa treatment
  dyskinetic ratings 3 hours after the afternoon levodopa treatment: 1.0 ± 0.4
[1]; week 6 of levodopa treatment
  dyskinetic ratings 3 hours after the afternoon levodopa treatment: 1.1 ± 0.2
[1]; week 8 of levodopa treatment
  dyskinetic ratings 3 hours after the afternoon levodopa treatment: 0.9 ± 0.1
[2]; measured 1.5-2 hours after levodopa dosing
  parkinsonism ratings: reduced
[2]; [4]
  Parkinson Ratings Expt 1: 0.4 (2×) and 0.6
  Parkinson Ratings Expt 2 (crossover): 1.8 and 0.9
[2]; on levodopa treatment, 1.5-2 hours after dosing, n=5
  Parkinson Ratings Mean ± SE (n): 0.8 ± 0.3 (5)
[3]
  solubility in water: slightly soluble

Reference: patent US7718677B2, “Methods and compositions for reduction of side effects of therapeutic treatments” (priority 2007, dated 2010)
